Measurements taken from US20160176924A1, “MODIFIED PEPTIDES AS POTENT INHIBITORS OF THE PSD-95/NMDA RECEPTOR INTERACTION” (priority 2008, published 2016).
“And” between values parts separate entries of the source, which are not always exact repeats. Equal entries are not always repeated.

What was measured:
[1] = molecular target: T1, PDZ1-2 tandem of PSD-95 (Homo sapiens, UniProt P78352); assay: FP heterologous competition binding assay; conditions: mean ± SEM
T1 construct: PDZ1-2 (residues 61-249) tandem; made in house; host or cells: E. coli BL21-DE3 pLysS
Text: (§1) Determined IC50 values may be converted to Ki values.^5 Suitable fluorophores include either 5-FAM or Cy5, which may be coupled to a tripeptide (KSG or CSG) linker attached to the N-terminus of the undecapeptide, to give 5-FAM-NR2B, Cy5-NR2B, 5-FAM-CRIPT and Cy5-CRIPT. The 5-FAM fluorophore may be attached to the undecapeptides by coupling with HATU. The Cy5 fluorophore may be conjugated to the undecapeptides by coupling Cy5-maleimide to the cysteine side chain of the tripeptide sequence CSG attached to the N-terminus of the peptide, as detailed in the Methodology section.
(§2) To measure the affinities between non-fluorescent peptides and PDZ domains, heterologous competition bindings assay were performed. This was done by adding increasing concentrations of peptide to a fixed concentration of Cy5-NR2B, 5-FAM-NR2B, Cy5-CRIPT or 5-FAM-CRIPT (50 nM) and PDZ (20 μM for PDZ1, 3 μM for PDZ2 and 1-2 and 5 μM for PDZ3) in the same TBS buffer and conditions as described above. FP values were then fitted to the general equation: Y=Bottom+(Top−Bottom)/[1[…](10̂^X-logIC50)], where X is the logarithmic value of peptide concentration. Hereby the IC50 value was obtained, which is used to calculate the theoretical competitive inhibition constant, Ki.^5
(§3) A convenient and reliable way to examine interactions between peptide analogues and PDZ domains is by using a fluorescence polarization (FP) assay. The three PDZ domains, PDZ1-3, of PSD-95 were expressed individually as set out above, while PDZ1-2 was also expressed as a tandem construct. […] IC50 values were then converted to Ki values.^5

[2] = molecular target: T2, PDZ1-2 of PSD-95 (Homo sapiens, UniProt P78352); assay: Isothermal titration calorimetry (ITC); assay type: binding; conditions: for Kd: 25° C., PBS pH 7.4, mean ± SEM, read-out: ITC Kd PDZ12
T2 construct: PDZ1-2 (residues 61-249) tandem; made in house; host or cells: E. coli BL21-DE3 pLysS
Text: This technique (Pierce, M. et al., 1999., Methods, p. 213-221) provides an exact determination of the affinity of a ligand for its target protein, as well as measuring the thermodynamic properties of the interaction, including enthalpy (ΔH), entropy (ΔS) and free energy (ΔG) together with the stoichiometric relationship of ligand binding. In this method, un-labeled ligand is titrated into a solution of un-labeled PDZ protein located in the calorimeter. Heat generated upon protein recognition is measured (ΔH) during the titration of the ligand and the PDZ protein until saturation is achieved, and the heat-exchange upon further ligand addition is negligible. Based on the amount of ligand needed to achieve saturation an affinity constant (Kd) is calculated and in addition ΔH, ΔS, ΔG and stoichiometry are determined.
Calorimetry experiments were performed on a microcalorimeter (Microcal, MA, USA). The ligands were titrated directly into the PDZ solution. All ligands and PDZ proteins were solubilized in PBS buffer (137 mM NaCl, 2.7 mM KCl, 10 mM Na2HPO4, 2 mM KH2PO4, pH 7.4) and when necessary pH was adjusted to 7.4 within 0.02 pH units after solubilization. The concentration of peptide and PDZ in solution was quantified by amino acid analysis. The calorimetry experiments were conducted at 25° C., where the PDZ1-2 concentration was generally adjusted to about 20 μM (200 μL in calorimeter) and the ligand concentration to between 200-2500 μM (injected to the protein as 20×2 μL). Experiments were designed so that c-value (c-value=Ka*[Protein]*n; where Ka is the affinity association constant, [Protein] means protein concentration, and n is the stoichiometry of the reaction) was within 1-1000. The analysed solution was stirred at 1000 rpm, with a reference power of 6 μcal/s. Heats of dilution were initially determined by titrating the ligand into buffer and subtracting these baseline values from the observed “heat values”. The data from each titration experiment were collected by ORIGIN 7.0 (Microcal, MA, USA), which was also used to determine the thermodynamic properties of ligand binding using non-linear least-squares fitting assuming a single-site model.

[3] = Human blood plasma stability assay; assay type: in vitro ADME; conditions: for half-life at […]: human, plasma, Blood plasma half life (T1/2)
Method: In this assay, the half-life (T1/2) of a compound in blood plasma is measured in vitro, whereby its susceptibility to degradation by proteases, peptidases and general plasma contents is quantified.
Compounds of interest were dissolved in human blood plasma (270 μl; 3H Biomedical, Sweden, cat no 1300-1-P50) to a concentration of 0.25 mM (30 μL of 2.5 mM) and incubated at 37° C. Aliquots (30 μl) were removed at various time intervals (0, 5, 10, 20, 40, 80, 160, 320, 960, 1280, 2550, 4560 and 7240 min) and quenched with 60 μL trichloroacetic acid (aq., 5%). The aliquots were vortexed, and incubated for at least 15 min, at 4° C. prior to centrifugation at 18,000 g for 2 min and the supernatant was analyzed by RP-HPLC to quantify the remaining compound (absorbance at 218 nm).

[4] = molecular target: T3, PDZ1 of PSD-95 (Homo sapiens, UniProt P78352); assay: FP heterologous competition binding assay; conditions: for Ki: FP competition, mean ± SEM, NA = no activity/affinity
T3 construct: PSD-95 PDZ1 (residues 61-151); made in house; host or cells: E. coli BL21-DE3 pLysS
Text: as §1, §2, §3

[5] = molecular target: T4, PDZ3 of PSD-95 (Homo sapiens, UniProt P78352); assay: FP heterologous competition binding assay; conditions: FP competition; mean ± SEM; NA = no activity/affinity
T4 construct: PDZ3 (residues 309-401); made in house; host or cells: E. coli BL21-DE3 pLysS
Text: as §1, §2, §3

[6] = test system: cultured cortical neurons; assay: Neuronal NMDA excitotoxicity assay (LDH release); assay type: cell-based, rat; conditions: 500 nM
Text: When cultured cortical neurons are exposed to high concentrations of NMDA, an excitoxic cascade is initiated, which leads to cellular damage and ultimately neuronal cell death. Consequently, the cell membranes are destroyed, and cytoplasmic enzymes are released into the cell surroundings. The extent of this neuronal cell death can be quantified by measuring the release of cytoplasmic lactate dehydrogenase (LDH) enzyme into the cell medium. The compounds of interest and control compound (3) are investigated with respect to their abilities to attenuate NMDA-mediated toxicity. Compounds that are active in this assay are both membrane permeable, and can prevent ex vivo excitotoxicity, which are important properties for therapeutics towards excitotoxicity mediated diseases.
Cortical neurons were surgically removed from rats (e.g. E21) and then cultured for 7-9 days in vitro in Neurobasal A medium with B-27 supplement (each supplied by Invitrogen), further supplemented with 1 mM glutamine, 50 units/ml penicillin, and 50 μg/ml streptomycin. The following steps were then performed:
1. Samples of the cultured cortical neurons were removed from the Neurobasal-A based culture medium, at various time points prior to exposure to compound, and placed into “transfection medium” ([…]; as defined by Bading et al (1993) Science 260, 181-186) comprising: 10% modified Minimum Essential Medium (supplied by Invitrogen; product no: 21090022; containing Earles salt, but no L-glutamine), 90% Salt-Glucose-Glycine (SGG) medium: (114 mM NaCl, 0.219% NaHCO3, 5.292 mM KCL, 1 mM MgCl2, 2 mM CaCl2, 10 mM HEPES, 1 mM Glycine, 30 mM glucose, 0.5 mM sodium pyruvate, 0.1% Phenol Red), insulin-transferrin-selenite supplement (supplied by Sigma: 7.5 μg insulin/ml, 7.5 μg transferring/ml and 7.5 ng sodium selenite/ml); with a final osmolarity of 325 mosm/l. All subsequent steps were performed in this TM medium. 2. Samples of neurons are exposed to an NMDAR/PSD-95 inhibitor of the invention (compounds 40, 52-90) at a final concentration of between 0.05-50 μM for a period of between 0.5 to 1.5 hours. […] 3. Each sample of neurons was washed at least one time in TM medium to remove the NMDAR/PSD-95 inhibitor, and placed in TM medium. 4. After various periods of time, the samples of neurons were exposed to NMDA at a concentration of between 10-100 μM for a period of 0.5 to 1.5 hours, preferably 1 hour, after which the samples were again placed in TM medium for 24 hours. 5. LDH in the cell medium was quantified using commercial available kits (e.g. Promega Biotech AB, cat no G1780).

[7] = molecular target: T5, PDZ2 of PSD-95 (Homo sapiens, UniProt P78352); assay: FP heterologous competition binding assay; conditions: for Ki: FP competition, mean ± SEM, NA = no activity/affinity
T5 construct: PDZ2 (residues 155-249); made in house; host or cells: E. coli BL21-DE3 pLysS
Text: as §1, §2, §3

[8] = molecular target: T6, PSD-95's PDZ2 domain (Homo sapiens, UniProt P78352); assay: Polyhistidine pull-down assay; assay type: binding; conditions: 200 μM
T6 construct: PDZ2 (residues 155-249); His-tag (thrombin-cleavable) (cleaved yes); made in house; host or cells: E. coli (as for the other PDZ constructs)
Text: The polyhistidine pull-down is an in vitro technique that consists of a polyhistidine-tagged bait NRB2 or CRIPT protein C-terminal domain (e.g NR2B WT peptide with the sequence [sequence]) that can be used to identify competitors of a PDZ domain-binding partner (PDZ domain of PSD-95) (the prey). The bait protein is immobilized on cobalt chelated affinity gel. The bait serves as the secondary affinity support for the protein partner to the bait and for identifying competitors that can displace the prey from the bait. The competitors are peptide analogues, specifically an NMDAR/PSD-95 inhibitor of the present invention. PPIs, between the prey and bait are analyzed by chemically dissociating/eluting the bound prey (PDZ domain or peptide analogue) and visualizing the prey by SDS-PAGE and associated detection methods depending on the sensitivity requirements of the interacting proteins. These methods include Coomassie® Dye, silver, and zinc staining; western blotting; and [^35S] radioisotopic detection. Alternatively, the displaced prey detected on the gel, can be isolated from a polyacrylamide gel, and further analyzed. […]
As bait, a polyhistidine NR2B WT peptide with the sequence [sequence] was synthesized. […] Eluted PDZ2 was analyzed by SDS-PAGE and silver staining.

CC[C@H](C)[C@H](NC(=O)CCOCCOCCOCCOCCOCCC(=O)N[C@H](C(=O)N[C@@H](CCC(=O)O)C(=O)N[C@@H](CO)C(=O)N[C@@H](CC(=O)O)C(=O)N[C@H](C(=O)O)C(C)C)[C@@H](C)CC)C(=O)N[C@@H](CCC(=O)O)C(=O)N[C@@H](CO)C(=O)N[C@@H](CC(=O)O)C(=O)N[C@H](C(=O)O)C(C)C [(IESDV)2PEG4 (78), (IESDV)2PEG4]
Ki [1]: ~100 nM | Kd [2]: 32 ± 10 nM | degradation in human blood plasma, in words [3]: no significant degradation could be detected over a time period of 6 days | half-life at […] [3]: > 133 h

CC(C)[C@H](NC(=O)[C@H](C)NC(=O)[C@@H](NC(=O)[C@H](CCC(=O)O)NCCc1ccc2ccccc2c1)C(C)O)C(=O)O (some centres unmarked) [Compound 63, N-(Naphtalene-2-yl)ethyl-ETAV]
Ki [4]: 1000 ± 330 nM | Ki [5]: 10000 ± 220 nM | effect on NMDA-mediated excitotoxicity, in words [6]: inhibit neuronal excitotoxicity, as efficiently as the clinical candidate Tat-N2B (3)

CN[C@@H](CCC(=O)O)C(=O)N[C@H](C(=O)N[C@@H](C)C(=O)N[C@H](C(=O)O)C(C)C)C(C)O (some centres unmarked) [Compound 40, N-Methyl-ETAV]
Ki [4]: 11000 ± 470 nM | fold increase in Ki (loss of affinity) compared to NR2B peptide (1), PDZ2 [7]: 2 fold | Ki [7]: 8900 ± 500 nM | Ki [5]: 78000 ± 1500 nM | inhibition of PDZ2 binding to NR2B WT bait in pull-down, in words [8]: very effective inhibitor

CC[C@H](C)[C@H](NC(=O)CCOCCOCCOCCOCCOCCC(=O)N[C@H](C(=O)N[C@@H](CCC(=O)O)C(=O)N[C@H](C(=O)N[C@@H](C)C(=O)N[C@H](C(=O)O)C(C)C)[C@@H](C)O)[C@@H](C)CC)C(=O)N[C@@H](CCC(=O)O)C(=O)N[C@H](C(=O)N[C@@H](C)C(=O)N[C@H](C(=O)O)C(C)C)[C@@H](C)O [(IETAV)2PEG4 (83), (IETAV)2PEG4]
Ki [1]: ~100 nM | Ki [7]: 1100 ± 70 nM | fold greater affinity towards PDZ1-2 compared to Tat-NR2B (3) (WT or Tat-NR2B) [2]: about 1000 fold | Kd [2]: 11 ± 10 nM | fold increase in ligand affinity by dimerization compared to monomeric IETAV (82) ([2]; PDZ1-2): 176 fold | half-life at […] [3]: 6.82 h

CC(C)[C@H](NC(=O)[C@H](C)NC(=O)[C@@H](NC(=O)[C@H](C)NCCC1CCCCC1)[C@@H](C)O)C(=O)O [ATAV (73)]
Ki [4]: 8900 ± 1000 nM | effect on NMDA-mediated excitotoxicity, in words [6]: inhibit neuronal excitotoxicity, as efficiently as the clinical candidate Tat-N2B (3)

CC(C)[C@H](NC(=O)[C@H](C)NC(=O)[C@@H](NC(=O)[C@H](CCC(=O)O)NCCC1CCCCC1)C(C)O)C(=O)O (some centres unmarked) [Compound 56, N-Cyclohexylethyl-ETAV]
fold increase in affinity (more potent) compared to NR2B peptide (1), PDZ1 [4]: ca. 19 fold | selectivity towards PDZ1 relatively to PDZ3 [4]: 10 fold | Ki [4]: 1000 nM and 940 nM | fold increase in affinity compared to NR2B peptide (1), PDZ2 [7]: 9 fold | selectivity towards PDZ2 relatively to PDZ3 [7]: 20 fold | Ki [7]: 450 ± 130 nM | Ki [5]: 11000 ± 430 nM | effect on NMDA-mediated excitotoxicity, in words [6]: inhibit neuronal excitotoxicity, as efficiently as the clinical candidate Tat-N2B (3)

CC(C)C[C@H](NC(=O)CNC(=O)[C@H](CO)NC(=O)[C@@H](N)CCCCN)C(=O)N[C@@H](CC(=O)O)C(=O)N[C@H](C(=O)N[C@@H](CCCCN)C(=O)N[C@@H](CC(N)=O)C(=O)N[C@@H](Cc1ccc(O)cc1)C(=O)N[C@@H](CCCCN)C(=O)N[C@@H](CCC(N)=O)C(=O)N[C@H](C(=O)N[C@@H](CO)C(=O)N[C@H](C(=O)O)C(C)C)[C@@H](C)O)[C@@H](C)O [CRIPT (2), reference compound]
Ki [4]: 97000 ± 18000 nM | Ki [1]: 45000 ± 4100 nM | Ki [7]: 25000 ± 1600 nM | Ki [5]: 2100 ± 150 nM
